Test results: DBAASP
In brackets after ≈: the same amount, converted by molar mass.

Assays:
Assay in all cases: ≥ marks a high value that may be exact or a test limit, other limits are often not marked, values filed in µg/mL are converted to µM
Escherichia coli = tested on: Escherichia coli
Bacillus subtilis = tested on: Bacillus subtilis
Staphylococcus aureus = tested on: Staphylococcus aureus
[1] = tested on: Escherichia coli ATCC 25922
[2] = tested on: Candida albicans ATCC 90028
[3] = tested on: Staphylococcus aureus ATCC 29213
[4] = tested on: Pseudomonas aeruginosa ATCC 27853
Candida albicans = tested on: Candida albicans
[5] = tested on: Staphylococcus aureus ATCC 25923
[6] = tested on: Bacillus subtilis ATCC 6633

| SMILES | MIC (Escherichia coli) | MIC (Bacillus subtilis) | MIC [1] | MIC [2] | MIC [3] | MIC [4] | also measured |
| --- | --- | --- | --- | --- | --- | --- | --- |
| CC[C@H](C)[C@H](NC(=O)CNC(=O)[C@H](CO)NC(=O)[C@H](CC(C)C)NC(=O)[C@H](CC(C)C)NC(=O)CN)C(=O)N[C@@H](CC(C)C)C(=O)NCC(=O)N[C@@H](C)C(=O)NCC(=O)N[C@@H](CCCCN)C(=O)N[C@@H](Cc1cnc[nH]1)C(=O)N[C@H](C(=O)N[C@H](C(=O)N[C@@H](CS)C(=O)NCC(=O)N[C@@H](CC(C)C)C(=O)N[C@@H](CO)C(=O)NCC(=O)N1CCC[C@H]1C(=O)N[C@H]1CSSC[C@@H](C(=O)O)NC(=O)[C@H](CCCCN)NC(=O)[C@H](C)NC(=O)[C@H](CC(C)C)NC(=O)[C@H](Cc2cnc[nH]2)NC(=O)[C@H](Cc2ccc(O)cc2)NC(=O)[C@H](CCC(=O)O)NC(=O)[C@H](C(C)C)NC(=O)[C@H](CC(=O)O)NC(=O)[C@H](CO)NC(=O)[C@H](CO)NC(=O)[C@H](CCCCN)NC(=O)[C@H](CCCN=C(N)N)NC(=O)[C@H](CC(N)=O)NC(=O)[C@H](CC(C)C)NC(=O)[C@H](CO)NC(=O)[C@H](CCC(N)=O)NC1=O)C(C)C)[C@@H](C)CC [GLLSGILGAGKHIVCGLSGPCQSLNRKSSDVEYHLAKC] | 1.6 µM (≈ 6.25 µg/mL) | 3.19 µM (≈ 12.5 µg/mL) | – | – | – | – | MIC (Candida albicans): 0.797 µM (≈ 3.12 µg/mL); MIC (Staphylococcus aureus): 0.797 µM (≈ 3.12 µg/mL) |
| CC[C@H](C)[C@H](NC(=O)[C@@H](NC(=O)[C@H](CC(N)=O)NC(=O)[C@H](CC(C)C)NC(=O)[C@H](CC(C)C)NC(=O)CN)C(C)C)C(=O)N[C@@H](CCCCN)C(=O)N[C@@H](CC(=O)O)C(=O)N[C@H](C(=O)N[C@@H](C)C(=O)N[C@@H](CCC(N)=O)C(=O)N[C@@H](CC(N)=O)C(=O)N[C@@H](CC(C)C)C(=O)N[C@@H](Cc1ccccc1)C(=O)N[C@@H](C)C(=O)N[C@@H](C)C(=O)N[C@@H](C)C(=O)N[C@@H](CC(C)C)C(=O)N[C@@H](CCC(=O)O)C(=O)N[C@@H](CCCCN)C(=O)N[C@@H](CC(C)C)C(=O)N[C@@H](CCCCN)C(=O)N[C@H]1CSSC[C@@H](C(=O)N[C@@H](CC(N)=O)C(=O)O)NC(=O)[C@H](CCCCN)NC(=O)[C@H]([C@@H](C)O)NC(=O)[C@H](C(C)C)NC(=O)[C@H](CCCCN)NC1=O)[C@@H](C)O [GLLNVIKDTAQNLFAAALEKLKCKVTKCN] | – | – | 80 µM (≈ 252 µg/mL) | ≥ 160 µM | – | – | MIC [5]: > 160 µM |
| CC[C@H](C)[C@H](NC(=O)[C@H](CC(C)C)NC(=O)[C@@H]1CCCN1C(=O)[C@H](CC(C)C)NC(=O)[C@@H](N)Cc1ccccc1)C(=O)N[C@@H](C)C(=O)NCC(=O)N[C@H](C(=O)N[C@@H](C)C(=O)N[C@@H](C)C(=O)N[C@@H](CO)C(=O)N[C@H](C(=O)N[C@@H](CC(C)C)C(=O)N1CCC[C@H]1C(=O)N[C@@H](CCCCN)C(=O)N[C@H](C(=O)N[C@@H](Cc1ccccc1)C(=O)N[C@H]1CSSC[C@@H](C(=O)O)NC(=O)[C@H](CCCCN)NC(=O)[C@H](CCCCN)NC(=O)[C@H]([C@@H](C)O)NC(=O)[C@H]([C@@H](C)CC)NC(=O)[C@H](Cc2ccccc2)NC1=O)[C@@H](C)CC)[C@@H](C)CC)C(C)C [FLPLIAGVAASILPKIFCFITKKC] | – | – | > 100 µM | 3 µM (≈ 7.78 µg/mL) | – | – | MIC [5]: 3 µM (≈ 7.78 µg/mL) |
| CSCC[C@H](NC(=O)[C@H](Cc1ccccc1)NC(=O)CN)C(=O)N[C@@H](CO)C(=O)N[C@H](C(=O)N[C@@H](C)C(=O)N[C@@H](CO)C(=O)N[C@@H](CC(N)=O)C(=O)N[C@H](C(=O)N[C@@H](CC(C)C)C(=O)N[C@H](C(=O)N[C@@H](CC(N)=O)C(=O)N[C@H](C(=O)N[C@@H](C)C(=O)NCC(=O)N[C@H](C(=O)N[C@H](C(=O)N[C@@H](CCSC)C(=O)N[C@@H](CC(=O)O)C(=O)N[C@@H](CCCCN)C(=O)N[C@@H](CC(C)C)C(=O)N[C@@H](CCCCN)C(=O)N[C@H]1CSSC[C@@H](C(=O)O)NC(=O)[C@H](C)NC(=O)CNC(=O)[C@H]([C@@H](C)O)NC(=O)[C@H](Cc2ccccc2)NC(=O)[C@H](CCCCN)NC1=O)C(C)C)[C@@H](C)O)C(C)C)[C@@H](C)O)C(C)C)[C@@H](C)O [GFMSTASNVLTNVAGTVMDKLKCKFTGAC] | – | – | – | – | – | – | MIC [6]: ≥ 100 µM |

Second part, led by results:

| MIC (Escherichia coli) | MIC (Bacillus subtilis) | MIC [1] | MIC [2] | MIC [3] | MIC [4] | SMILES | also measured |
| --- | --- | --- | --- | --- | --- | --- | --- |
| 38.3 µM (≈ 70.8 µg/mL) | 1.19 µM (≈ 2.2 µg/mL) | – | – | – | – | CC[C@H](C)[C@H](NC(=O)[C@H](CC(C)C)NC(=O)[C@H](C)NC(=O)[C@@H]1CCCN1C(=O)[C@H](CC(C)C)NC(=O)[C@@H](N)CC(C)C)C(=O)N[C@@H](CO)C(=O)N[C@@H](Cc1c[nH]c2ccccc12)C(=O)N[C@H](C(=O)N[C@@H](CCCCN)C(=O)N[C@@H](CCCN=C(N)N)C(=O)N[C@@H](CCCCN)C(=O)N[C@@H](CCCN=C(N)N)C(=O)N[C@@H](CCC(N)=O)C(=O)N[C@@H](CCC(N)=O)C(N)=O)[C@@H](C)CC [LLPALISWIKRKRQQ] | MIC (Staphylococcus aureus): 0.595 µM (≈ 1.1 µg/mL) |
| – | – | 2.5 µM (≈ 3.49 µg/mL) | 10 µM (≈ 13.9 µg/mL) | 5 µM (≈ 6.97 µg/mL) | 2.5 µM (≈ 3.49 µg/mL) | CC[C@H](C)[C@H](NC(=O)[C@H](CCCN=C(N)N)NC(=O)[C@H](C)NC(=O)[C@@H](NC(=O)[C@@H](NC(=O)[C@H](CCCN=C(N)N)NC(=O)[C@@H](N)CCCCN)[C@@H](C)CC)C(C)C)C(=O)N[C@@H](CCCCN)C(=O)N[C@@H](C)C(=O)N[C@@H](C)C(=O)N[C@@H](CC(C)C)C(=O)N[C@@H](CCCN=C(N)N)C(=O)O [KRIVARIKAALR] | – |
| – | – | 40 µM (≈ 60.6 µg/mL) | ≥ 40 µM | 40 µM (≈ 60.6 µg/mL) | 40 µM (≈ 60.6 µg/mL) | CC[C@H](C)[C@H](NC(=O)[C@H](CCCN=C(N)N)NC(=O)[C@H](CCC(N)=O)NC(=O)[C@@H](NC(=O)[C@@H](NC(=O)[C@H](CCCN=C(N)N)NC(=O)[C@@H](N)CCCCN)[C@@H](C)CC)C(C)C)C(=O)N[C@@H](C)C(=O)N[C@@H](CC(=O)O)C(=O)N[C@@H](Cc1ccccc1)C(=O)N[C@@H](CC(C)C)C(=O)N[C@@H](CCCN=C(N)N)C(=O)O [KRIVQRIADFLR] | – |
| – | – | 1.25 µM (≈ 1.91 µg/mL) | 1.25 µM (≈ 1.91 µg/mL) | 1.25 µM (≈ 1.91 µg/mL) | 1.25 µM (≈ 1.91 µg/mL) | CC[C@H](C)[C@H](NC(=O)[C@H](CCCN=C(N)N)NC(=O)[C@H](CCCCN)NC(=O)[C@@H](NC(=O)[C@@H](NC(=O)[C@H](CCCN=C(N)N)NC(=O)[C@@H](N)CCCCN)[C@@H](C)CC)C(C)C)C(=O)N[C@@H](CCCCN)C(=O)N[C@@H](C)C(=O)N[C@@H](Cc1ccccc1)C(=O)N[C@@H](CC(C)C)C(=O)N[C@@H](CCCN=C(N)N)C(=O)O [KRIVKRIKAFLR] | – |
| 47.5 µM (≈ 83.6 µg/mL) | 17.5 µM (≈ 30.8 µg/mL) | – | – | – | – | CC[C@H](C)[C@H](N)C(=O)N[C@@H](CC(=O)O)C(=O)N[C@@H](Cc1c[nH]c2ccccc12)C(=O)N[C@@H](CCCCN)C(=O)N[C@@H](CCCCN)C(=O)N[C@H](C(=O)N[C@@H](Cc1ccccc1)C(=O)N[C@@H](CCC(=O)O)C(=O)N[C@@H](CCCCN)C(=O)N[C@H](C(=O)N[C@@H](CCCCN)C(=O)N[C@@H](CC(=O)O)C(=O)N[C@@H](CC(C)C)C(=O)N[C@H](C(N)=O)C(C)C)C(C)C)[C@@H](C)CC [IDWKKIFEKVKDLV] | – |
| 6.25 µM (≈ 12 µg/mL) | 10 µM (≈ 19.2 µg/mL) | – | – | – | – | CC[C@H](C)[C@H](NC(=O)[C@H](CO)NC(=O)[C@H](C)NC(=O)[C@@H](NC(=O)[C@H](CCCCN)NC(=O)[C@H](CCCCN)NC(=O)[C@H](Cc1c[nH]c2ccccc12)NC(=O)[C@@H](NC(=O)[C@@H](N)CC(N)=O)[C@@H](C)CC)[C@@H](C)CC)C(=O)N[C@@H](C)C(=O)N[C@@H](CCCCN)C(=O)N[C@@H](CCC(=O)O)C(=O)N[C@H](C(=O)N[C@@H](CC(C)C)C(=O)N[C@@H](CCCCN)C(=O)N[C@@H](C)C(=O)N[C@@H](CC(C)C)C(N)=O)C(C)C [NIWKKIASIAKEVLKAL] | – |
